Molecular target: T1, EcRB2/USP (Drosophila melanogaster, UniProt P34021)
T1 construct: The plasmid encodes a version of EcRB2 that includes 669 amino acids, and deletes the F domain; expressed in transfected cells; host or cells: CHO
T1 sequence (P34021 1-669 isoform P34021-3): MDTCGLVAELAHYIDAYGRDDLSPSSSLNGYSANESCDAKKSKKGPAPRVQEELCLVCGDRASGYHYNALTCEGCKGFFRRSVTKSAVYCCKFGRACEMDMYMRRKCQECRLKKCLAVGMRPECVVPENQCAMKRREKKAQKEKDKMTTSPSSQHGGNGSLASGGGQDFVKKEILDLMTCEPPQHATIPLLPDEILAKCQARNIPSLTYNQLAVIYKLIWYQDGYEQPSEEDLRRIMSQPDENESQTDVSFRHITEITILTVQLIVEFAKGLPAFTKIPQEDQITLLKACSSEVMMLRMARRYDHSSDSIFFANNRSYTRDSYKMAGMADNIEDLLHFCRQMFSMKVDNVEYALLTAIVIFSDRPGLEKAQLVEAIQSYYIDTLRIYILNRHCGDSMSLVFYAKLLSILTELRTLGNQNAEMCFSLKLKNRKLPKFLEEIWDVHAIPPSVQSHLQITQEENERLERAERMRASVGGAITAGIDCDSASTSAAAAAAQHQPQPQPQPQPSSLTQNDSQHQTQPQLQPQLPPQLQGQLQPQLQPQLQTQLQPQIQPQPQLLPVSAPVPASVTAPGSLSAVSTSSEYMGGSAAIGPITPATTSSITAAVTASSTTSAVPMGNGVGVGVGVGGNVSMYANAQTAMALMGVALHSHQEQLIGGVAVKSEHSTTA
T1 sequence (O76202 192-472 partner): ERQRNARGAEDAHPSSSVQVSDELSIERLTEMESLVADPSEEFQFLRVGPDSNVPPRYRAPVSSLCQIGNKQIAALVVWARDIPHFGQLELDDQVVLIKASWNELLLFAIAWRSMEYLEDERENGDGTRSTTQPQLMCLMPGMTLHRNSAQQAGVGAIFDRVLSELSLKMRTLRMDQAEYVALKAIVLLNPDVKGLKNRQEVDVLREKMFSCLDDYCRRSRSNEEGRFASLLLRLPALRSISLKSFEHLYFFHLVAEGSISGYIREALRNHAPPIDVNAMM
Assay: EcRB2 isoform with USP (VP16CfUSP), (EcRE)5-ΔMTV-LUC in CHO cells
Type: cell-based
Method: These experiments employed a mammalian cell culture system using Chinese hamster ovary cells (CHO) to evaluate the transcriptional function of Drosophila melanogaster EcR and USP using methods described previously (U.S. Patent Application Publication No: 2005/0049230; Henrich et al, 2003). Cells were seeded in 6-well polypropylene culture plates (Falcon) with 10^5 cells per well on the day prior to transfection. Transfection was subsequently performed using either calcium phosphate (Kitareewan et al., 1996, Mol. Biol. Cell, 7:1153-1196) or a GenePorter reagent (Gene Therapy Systems, Inc; San Diego, Calif.) following manufacturer's protocols. Each well received 1.25 μg of (EcRE)5-ΔMTV-CAT (five copies of the hsp27 EcRE inserted into an mouse mammary tumor virus (MTV) promoter upstream of the chloramphenicol acetyltransferase (CAT) gene) or (EcRE)5-ΔMTV-LUC (the same promoter attached to firefly luciferase), 1.25 μg of pCH111 (SV40 early promoter linked to the β-galactosidase gene) to normalize CAT activity, and 0.25 μg of each expression plasmid (EcR, FXR, RXR, USP) that was tested. The cells were incubated with plasmid DNA for seven hours and then washed with 1×PBS. Muristerone A (murA; Alexis Biochemicals) or 20-hydroxyecdysone (20E; Sigma) dissolved in ethanol to a concentration of 10 mM was diluted as necessary to the final assay concentration (FAC) in 2 ml of fresh incubation medium that was then applied to the cells. Similarly, JHIII (Sigma) was dissolved in dimethyl sulfoxide (DMSO) to a concentration of […] and diluted into the incubation medium to its final assay concentration (20, 40, 80, 160 μM). […] A corresponding volume of ethanol and DMSO were added to control cells for all experiments. For all experiments, the cells were allowed to incubate with the medium for 24 hours before collection and cell lysates were prepared by described methods (Kitareewan et al., 1996). Both β-galactosidase and CAT reporter activity were measured based on previously used methods (Kitareewan et al, 1996). Luciferase assays using luciferrin followed the specifications of the manufacturer.
Transcriptional activity, measured as ^14C-chloramphenicol counts (for measuring CAT activity) or relative luciferase activity (RLU) was quantified for each cell lysate. The counts were then normalized by adjusting for differences in β-galactosidase activity, since β-galactosidase expression is controlled by a constitutive promoter and provides an estimate of cell mass. Data were normalized as fold-induction based on differences in reporter gene activity between hormonally treated and control cells.

## CC(C)(O)CC[C@@H](O)[C@](C)(O)[C@H]1CC[C@@]2(O)C3=CC(=O)[C@@H]4C[C@@H](O)[C@@H](O)C[C@]4(C)[C@H]3CC[C@]12C [20E, 20-hydroxyecdysone]
EcRB2 + VP16CfUSP, 10 μM 20E
  transcriptional response to 20E: consistent and discernible transcriptional response
EcRB2/USP, 10 μM 20E
  20E (inducibility): + ((+) designates a change in transcriptional level that exceeds 2.5-fold)

## COC(=O)/C=C(\C)CC/C=C(\C)CC[C@H]1OC1(C)C [JHIII, juvenile hormone III]
EcRB2 + VP16CfUSP, 10 μM 20E plus JHIII
  potentiation of 20E response by JHIII: potentiated significantly
EcRB2 + VP16CfUSP, 80 μM JHIII with 0.1 μM murA
  potentiation of murA response by JHIII: potentiated
EcRB2/USP, 0.1 μM murA + 80 μM JHIII
  MurA + JHIII (JHIII potentiation): + ((+) indicates observed potentiation that exceeds 2-fold above the levels observed with ecdysteroid alone)
EcRB2/USP, 10 μM 20E + 80 μM JHIII
  20E + JHIII (JHIII potentiation): + ((+) indicates observed potentiation that exceeds 2-fold above the levels observed with ecdysteroid alone)

## CC(C)CC[C@@H](O)[C@](C)(O)[C@H]1CC[C@@]2(O)C3=CC(=O)[C@]4(O)C[C@@H](O)[C@@H](O)C[C@]4(C)[C@H]3[C@H](O)C[C@]12C [murA, muristerone A]
EcRB2 + VP16CfUSP, 1 μM murA
  induction by murA: 30-40 fold
EcRB2/USP, 0.1 μM murA
  MurA (inducibility): + ((+) designates a change in transcriptional level that exceeds 2.5-fold)
